Reference: patent publication US4925848A, “Derivative of codeine useful as an agonist and process for the preparation of it” (Reckitt & Colman Products Limited, priority 1987, dated 1990)
Converted amounts (≈) assume the structure as drawn. “Also recorded” adds a separate entry of the source.

Experiments:
kappa opioid receptor = test: Mouse vas deferens preparation (MVD), kappa receptor (ethylketocyclazocine); format: cell-based; conditions: in vitro MVD; antagonist of ethylketocyclazocine; read-out: ke, k
Excerpt: (§1) To obtain some insight into the profiles at opioid receptor subtypes compounds of formula III where R=H, Cl, Br and Me were therefore examined in isolated tissue preparations. Comparative data on the previously disclosed dehydro compounds of formula III is also included. The results obtained in the mouse was deferens preparation (MVD)(Henderson et al Brit J Pharmacol., 46,764, 1972) for these compounds are shown in Table 2. Although the unsubstituted compounds (R=H) were full agonists in this test situation no delta-agonist properties could be detected. […] The corresponding methyl and bromo dihydro compounds were antagonists with the rank order of affinities: mu>delta>kappa.
(§2) ke = Molar concentration of antagonist at which twice the concentration o
(§3) the agonist was required to produce the same response as that produced in
(§4) the absence of the antagonist; μ Agonist = Normorphine (NM); kAgonist
(§5) Ethylketocyclazocine; dAgonist = DAla-D-Leu Enkephalin.

mu opioid receptor = molecular target: T1, mu opioid receptor (Mus musculus, UniProt P42866); test: Mouse vas deferens preparation (MVD), mu receptor (normorphine); format: cell-based; conditions: in vitro MVD; for Kb: antagonist of normorphine, read-out: ke, μ
T1 construct: mu agonist normorphine
Excerpt: as §1, §2, §3, §4, §5

opioid receptor subtypes = test: Mouse vas deferens preparation (MVD), agonist/antagonist profile at opioid receptor subtypes; format: cell-based; conditions: for rank order of affinities: antagonists
Excerpt: as §1, §2, §3, §4, §5

delta opioid receptor = molecular target: T2, delta opioid receptor (Mus musculus, UniProt P32300); test: Mouse vas deferens preparation (MVD), delta receptor (DAla-D-Leu enkephalin); format: cell-based; conditions: for Kb: antagonist of DAla-D-Leu enkephalin, read-out: ke, d
T2 construct: delta agonist DAla-D-Leu enkephalin
Excerpt: as §1, §2, §3, §4, §5

kappa and mu receptors = test: DMPP stimulated guinea pig ileum (GPI) preparation (kappa and mu test); format: cell-based; conditions: in words
Excerpt: *In the guinea pig ileum preparation (GPI), as described on page 268 of […]

[1] = tested on: drug reinforcing effects in rhesus monkeys; test: Self-administration study in codeine-trained rhesus monkeys (drug reinforcing effects); format: in vivo, rhesus monkey; conditions: for response rates maintained compared with codeine: similar conditions, FIGS. 2 and 3
Procedure: Drug reinforcing effects were evaluated in rhesus monkeys trained to respond for 0.32 mg/kg/iv injection of codeine.

[2] = tested on: rat tail pressure antinociception; test: Rat tail pressure (RTP) antinociceptive test; format: in vivo; conditions: for agonist activity in the RPT test: in words
Excerpt: Compounds of formula III were initially examined in two antinociceptive tests (in vivo) to assess their analgesic potential and are shown in the following Table 1. These tests were:
(2) The rat tail pressure (RTP) which is described by Green and Young, (Br. J. Pharmac Chemother., 6,572, 1951).

[3] = tested on: morphine antagonist activity; conditions: s.c., reported in a response filed during prosecution of the corresponding U.S. application; cited from earlier work
delta receptor = molecular target: T3, delta receptor (Mus musculus, UniProt P32300); test: MVD agonist effects of compound I in absence/presence of RX 8008M or naltrexone; format: cell-based
T3 construct: agonism of compound I with delta-selective antagonist RX or mu-selective naltrexone
Excerpt: ^a Groups (n = 2-6) of MVD used in each treatment schedule.
^b IC40 is the concentration of agonist required to reduce the
maximal contraction to electrical stimulation by 40 percent. The slow
values in the presence or absence of the antagonists in the same

mu receptor = test: GPI preparation, mu receptor agonism; format: cell-based, guinea pig; conditions: in words
kappa receptor = kappa receptor (Cavia porcellus, UniProt P41144); test: GPI preparation, kappa receptor agonism; format: cell-based, guinea pig; conditions: in words
Chain of kappa receptor (P41144 whole entry): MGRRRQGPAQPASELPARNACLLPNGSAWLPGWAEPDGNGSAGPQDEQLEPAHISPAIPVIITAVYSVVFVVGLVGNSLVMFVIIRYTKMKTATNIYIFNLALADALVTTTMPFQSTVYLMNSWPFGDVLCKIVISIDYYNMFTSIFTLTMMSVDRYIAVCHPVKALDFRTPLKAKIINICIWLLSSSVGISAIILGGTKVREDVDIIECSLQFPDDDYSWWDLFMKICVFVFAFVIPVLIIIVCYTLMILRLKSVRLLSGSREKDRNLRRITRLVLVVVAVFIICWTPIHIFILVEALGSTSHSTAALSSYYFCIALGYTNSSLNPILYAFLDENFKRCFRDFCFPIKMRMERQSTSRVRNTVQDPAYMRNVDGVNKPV

T2 sequence (P32300 whole entry): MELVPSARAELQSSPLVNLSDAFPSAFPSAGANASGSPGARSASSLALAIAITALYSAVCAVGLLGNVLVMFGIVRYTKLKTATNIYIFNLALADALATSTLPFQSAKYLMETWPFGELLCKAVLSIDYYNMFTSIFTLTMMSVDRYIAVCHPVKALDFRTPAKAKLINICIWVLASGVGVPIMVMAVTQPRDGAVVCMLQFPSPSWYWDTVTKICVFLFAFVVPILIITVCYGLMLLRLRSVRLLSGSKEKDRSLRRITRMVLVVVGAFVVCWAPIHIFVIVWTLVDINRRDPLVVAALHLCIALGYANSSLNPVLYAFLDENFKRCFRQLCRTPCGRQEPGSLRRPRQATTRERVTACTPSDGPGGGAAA
T3 sequence (P32300 whole entry): as above
T1 sequence (P42866 whole entry): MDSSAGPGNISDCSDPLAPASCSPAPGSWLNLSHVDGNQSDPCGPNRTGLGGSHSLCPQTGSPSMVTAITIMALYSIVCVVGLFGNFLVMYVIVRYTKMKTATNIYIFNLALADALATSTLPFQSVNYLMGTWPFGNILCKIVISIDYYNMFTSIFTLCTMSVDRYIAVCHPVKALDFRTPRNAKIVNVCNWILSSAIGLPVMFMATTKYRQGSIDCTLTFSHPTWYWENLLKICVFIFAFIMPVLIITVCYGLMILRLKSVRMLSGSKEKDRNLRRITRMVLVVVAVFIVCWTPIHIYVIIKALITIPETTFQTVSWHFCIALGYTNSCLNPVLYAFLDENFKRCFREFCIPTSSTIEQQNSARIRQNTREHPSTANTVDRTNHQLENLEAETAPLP

For COc1ccc2c3c1O[C@H]1C(=O)CC[C@@]4(NC(=O)C=Cc5ccc(Br)cc5)[C@@H](C2)N(CC2CC2)CC[C@]314 [Br dihydro], the Kb (kappa opioid receptor) was 0.0273 µM, the Kb (mu opioid receptor) was 0.00032 µM and the “rank order of affinities” value (opioid receptor subtypes; in vitro MVD) was “mu>delta>kappa”. For the same compound, the MVD activity profile (opioid receptor subtypes; in vitro MVD, in words) was “antagonists”, the “agonist activity in MVD” value (opioid receptor subtypes; in words) was “negligible agonist activity” and the Kb (delta opioid receptor; in vitro MVD) was 0.0086 µM. The “GPI dose-response curve / agonist activity” value (kappa and mu receptors) was “negligible agonist activity” and the “response rates maintained compared with codeine” value [1] was “appropriately equal to the level of responding maintained by codeine”.

With COc1ccc2c3c1O[C@H]1C(=O)C=C[C@@]4(NC(=O)C=Cc5ccccc5)[C@@H](C2)N(CC2CC2)CC[C@]314 [Ex. 15] the “agonist potency relative to normorphine (× NM)” value (mu opioid receptor) was 200 × NM and the MVD activity profile (opioid receptor subtypes; in vitro MVD, in words) was “μ and k-Agonist”.

With COc1ccc2c3c1O[C@H]1C(=O)C=C[C@@]4(NC(=O)C=Cc5ccc(Cl)cc5)[C@@H](C2)N(CC2CC2)CC[C@]314 [Ex. 91] the EC40 (opioid receptor subtypes; Mus musculus, in vitro MVD, Table 2, read-out: ED40 (μ + k-agonism)) was over 300 ng/mL, the MVD activity profile (opioid receptor subtypes; in vitro MVD, in words) was “Weak μ + k-Agonist” and the “delta agonism in MVD” value (delta opioid receptor; in vitro MVD, in words) was “No d-agonism detected”.

For COc1ccc2c3c1O[C@H]1C(=O)C=C[C@@]4(NC(=O)C=Cc5ccc(C)cc5)[C@@H](C2)N(CC2CC2)CC[C@]314 [Ex. 92], the MVD activity profile (opioid receptor subtypes; in vitro MVD, in words) was “Partial μ Agonist”.

For O=CN[C@@]12C=CC(=O)[C@@H]3Oc4c(O)ccc5c4[C@@]31CCN(CC1CC1)[C@@H]2C5 [Example 49], the “agonist activity in the RPT test” value [2] is given as “neither the dehydro compound (Example 49) nor the dihydro compound (Example 108) exhibited agonist activity” and the “AD50 (RTF test)” value [3] is given as 0.132 mg/kg.

For O=CN[C@@]12CCC(=O)[C@@H]3Oc4c(O)ccc5c4[C@@]31CCN(CC1CC1)[C@@H]2C5 [Example 108], the “agonist activity in the RPT test” value [2] is given as “neither the dehydro compound (Example 49) nor the dihydro compound (Example 108) exhibited agonist activity” and the “AD50 (RTF test)” value [3] is given as 0.16 mg/kg.

With COc1ccc2c3c1O[C@H]1C(=O)CC[C@@]4(NC(=O)C=Cc5ccccc5)[C@@H](C2)N(CC2CC2)CC[C@]314 [H dihydro] the “agonist potency relative to normorphine (× NM)” value (mu opioid receptor) was 72,000 × NM, the MVD activity profile (opioid receptor subtypes; in vitro MVD, in words) was “μ Agonist” and the “delta agonism in MVD” value (delta opioid receptor; in vitro MVD, in words) was “No d-agonism detected”.

In the case of COc1ccc2c3c1O[C@H]1C(=O)CC[C@@]4(NC(=O)C=Cc5ccc(Cl)cc5)[C@@H](C2)N(CC2CC2)CC[C@]314 [I, 14-β-p-chlorocinnamoylamino-7,8-dihydro-N-cyclopropylmethyl-norcodeinone], the IC40 (delta receptor) is reported as 0.098 ng/mL, the “IC40 in presence of RX 8008M” value (delta receptor; MVD, + RX 8008M (10 ng/ml)) is reported as 9.15 + 3.4 ng/ml and the “IC40 in presence of naltrexone” value (delta receptor; MVD, + naltrexone (100 ng/ml)) is reported as 1.44 + 0.01 ng/ml. The “mu agonist activity in GPI” value (mu receptor; DMPP stimulated GPI) was “low intrinsic activity mu agonist”, the “intrinsic activity at mu receptors, in vitro summary” value (mu receptor) was “low intrinsic acitivity at mu receptors” and the EC40 (delta opioid receptor; in vitro MVD, Table 2, read-out: ED40 (d-agonism)) was 3.1 ng/mL (≈ 5.97 nM). The “delta agonism in MVD” value (delta opioid receptor; in vitro MVD, in words) was “delta-agonist activity; also recorded: d-Agonist”, the “intrinsic activity at delta-receptors, in vitro summary” value (delta opioid receptor; in words) was “substantial level of intrinsic activity at delta-receptors” and the “GPI dose-response curve / agonist activity” value (kappa and mu receptors) was “very shallow dose-response curve”. For the same compound, the “antagonism of GPI response by RX 8008M” value (kappa and mu receptors; RX 8008M (25 nM)) was “atagonised by RX 8008M (25 nM)” and the “response rates maintained compared with saline” value ([1]; 0.0003-0.01 mg/kg, i.v., substituted for codeine, single 130 minute sessions, FIG. 1) was “identical to those maintained by saline”.

With COc1ccc2c3c1O[C@H]1C(=O)CC[C@@]4(NC(=O)C=Cc5ccc(C)cc5)[C@@H](C2)N(CC2CC2)CC[C@]314 [Me dihydro] the Kb (kappa opioid receptor) was 0.0663 µM, the Kb (mu opioid receptor) was 0.00028 µM and the “kappa agonist activity in GPI” value (kappa receptor) was “predominantly kappa partial agonist activity”. For the same compound, the “rank order of affinities” value (opioid receptor subtypes; in vitro MVD) was “mu>delta>kappa”, the MVD activity profile (opioid receptor subtypes; in vitro MVD, in words) was “antagonists” and the Kb (delta opioid receptor; in vitro MVD) was 0.0193 µM. The “response rates maintained compared with codeine” value [1] was “appropriately equal to the level of responding maintained by codeine”.

For COc1ccc(C=CC(=O)N[C@@]23CCC(=O)[C@@H]4Oc5c(OC)ccc6c5[C@@]42CCN(CC2CC2)[C@@H]3C6)cc1 [OMe dihydro], the “RTP, percent effect” value ([2]; at 1 mg/kg, Table 1) was 40%.
